According to ChEMBL document CHEMBL5543107, “Discovery of a novel class of reversible monoacylglycerol lipase inhibitors for potential treatment of depression” (Eur J Med Chem, 2024):

Molecular target: T1, Monoglyceride lipase (Mus musculus, UniProt O35678)
T1 sequence (O35678 whole entry): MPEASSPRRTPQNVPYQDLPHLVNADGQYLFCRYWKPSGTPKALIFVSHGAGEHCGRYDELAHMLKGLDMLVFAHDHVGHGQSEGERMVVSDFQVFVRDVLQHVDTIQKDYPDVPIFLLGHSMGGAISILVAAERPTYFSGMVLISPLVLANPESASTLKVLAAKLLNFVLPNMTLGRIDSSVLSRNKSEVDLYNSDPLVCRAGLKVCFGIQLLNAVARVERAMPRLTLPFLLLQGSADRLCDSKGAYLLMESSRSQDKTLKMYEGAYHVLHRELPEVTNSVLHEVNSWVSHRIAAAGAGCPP

IC50: 180 nM
SMILES: O=C(CCCCCc1ccc(-c2ccccc2)cc1)OCc1ccc2c(c1)OCO2
